Results reported in patent US8318731B2, “Pyrrolopyrimidines” (Janssen Pharmaceutica NV, priority 2007, dated 2012).

Key:
[1] = target: T1, PLK4 (h) (Homo sapiens, UniProt O00444); assay: PLK-4 human kinase scintillation proximity assay (SPA); type: biochemical; conditions: 1 μM ATP, 60 minutes at r.t., read-out: PLK4 pIC50 (converted)
T1 sequence (O00444 1-970): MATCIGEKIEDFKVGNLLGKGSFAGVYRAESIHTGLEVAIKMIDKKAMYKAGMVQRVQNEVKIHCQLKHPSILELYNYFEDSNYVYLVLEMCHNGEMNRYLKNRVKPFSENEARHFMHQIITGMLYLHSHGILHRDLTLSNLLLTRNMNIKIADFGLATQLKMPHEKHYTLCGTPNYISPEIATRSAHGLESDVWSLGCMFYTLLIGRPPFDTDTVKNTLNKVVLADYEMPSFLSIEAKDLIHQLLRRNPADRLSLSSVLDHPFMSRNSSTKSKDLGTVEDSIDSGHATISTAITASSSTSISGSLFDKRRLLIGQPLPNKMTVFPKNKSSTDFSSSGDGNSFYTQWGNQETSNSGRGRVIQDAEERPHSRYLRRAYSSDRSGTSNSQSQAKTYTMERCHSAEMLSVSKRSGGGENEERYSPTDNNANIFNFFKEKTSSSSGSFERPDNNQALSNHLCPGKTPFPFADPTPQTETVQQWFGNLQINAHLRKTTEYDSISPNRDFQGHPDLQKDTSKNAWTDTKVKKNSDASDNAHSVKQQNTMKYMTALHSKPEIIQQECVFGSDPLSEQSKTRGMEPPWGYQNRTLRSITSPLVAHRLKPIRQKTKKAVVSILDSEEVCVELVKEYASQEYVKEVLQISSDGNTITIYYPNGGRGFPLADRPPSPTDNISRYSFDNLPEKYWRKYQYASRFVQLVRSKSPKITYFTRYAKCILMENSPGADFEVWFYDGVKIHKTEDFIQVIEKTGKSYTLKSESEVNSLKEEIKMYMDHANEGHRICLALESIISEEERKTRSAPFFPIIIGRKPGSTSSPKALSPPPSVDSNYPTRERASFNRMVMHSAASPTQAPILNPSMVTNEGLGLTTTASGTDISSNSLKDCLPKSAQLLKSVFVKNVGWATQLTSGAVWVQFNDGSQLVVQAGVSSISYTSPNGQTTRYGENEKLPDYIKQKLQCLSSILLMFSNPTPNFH
Procedure: The in vitro inhibition of a panel of kinases was assessed using either the scintillation proximity assay (SPA) as described by Cook, N. D. et al., Advances in Experimental Medicine and Biology (1991), 36; p. 525-528.
In the SPA technology the activity of the kinase of interest is measured using an appropriate biotinylated substrate that is incubated with the aforementioned kinase protein in the presence of (^33P) radiolabeled ATP. (^33P) Phosphorylation of the substrate is subsequently measured through binding of the phosphorylated substrate to streptavidine coated beads that are based on the scintillant poly(vinyl toluene) (PVT-Beads). The scintillation intensity is detected by imaging on Leadseeker.
All kinases are pre-diluted to a 10× working concentration prior to addition into the assay. The composition of the dilution buffer for each kinase is detailed below.
In a final reaction volume of 30 μl, PLK4 (h) (19 μg/ml) is incubated with 50 mM Hepes pH 8.0, 10 mM MgCl2, 50 mM NaCl, 1 mM NaF, 1 mM DTT, 10 μM of peptide Biotin-RPRGQRDSSYYWE-OH, 1 μM ATP and 2 nM [γ-^33P-ATP] (6.0 μCi/ml). After incubation of 60 minutes at r.t., the reaction is stopped by addition of 40 μL of stop solution containing 8.7 mM EDTA, BSA 0.17%, 0.17% Triton X-100, 1.7 mg/ml SPA beads (GE-healthcare). The plate is centrifuged and read for Scintillation imaging on Leadseeker.

[2] = system: A2780; assay: Cellular proliferation assay (Alamar blue), A2780; type: cell-based; conditions: Homo sapiens, A2780, A2780 cells; 10% FCS; 72 h with compound; Alamar blue 24 h; read-out: pIC50 A2780 (converted)
Procedure: (§1) Cellular proliferation of these compounds was tested on a panel of different cell lines in the presence of 10% FCS serum (37° C. and 5% (v/v) CO2). In a first step these cells were seeded and incubated for 24 hours in the absence of compound. In the second step the cells were incubated for 72 hours with the compounds to be tested for 72 hours. The viable cell number was finally assessed in a standard Alamar blue cell viability assay.
(§2) The viable cell number was assessed by incubation for either 4 h (HCT-116, H1299) 6 h (U87-MG) or 24 h (A2780, PC3, MDA-MB-231) with Alamar blue (Resazurin 9 μg/ml, K-Ferrocyanide 90 μM, K-Ferricyanide 90 μM) and the converted fluorescent product was quantified on a fluorescent plate readed (544 nm/590 nm). Effect of the compounds is calculated as of on control cells.

[3] = system: HCT-116; assay: Cellular proliferation assay (Alamar blue), HCT-116; type: cell-based; conditions: Homo sapiens; HCT-116 cells; 10% FCS; 72 h with compound; Alamar blue 4 h; read-out: pIC50 HCT-116 (converted)
Procedure: as §1, §2

[4] = system: MDA-MB-231; assay: Cellular proliferation assay (Alamar blue), MDA-MB-231; type: cell-based; conditions: Homo sapiens, MDA-MB-231, MDA-MB-231 cells; 10% FCS; 72 h with compound; Alamar blue 24 h; read-out: pIC50 MDA/MB231 (converted)
Procedure: as §1, §2

[5] = system: PC3; assay: Cellular proliferation assay (Alamar blue), PC3; type: cell-based; conditions: Homo sapiens, PC-3, PC-3 cells; 10% FCS; 72 h with compound; Alamar blue 24 h; read-out: pIC50 PC-3 (converted)
Procedure: as §1, §2

[6] = system: H1299; assay: Cellular proliferation assay (Alamar blue), H1299; type: cell-based; conditions: Homo sapiens, NCI-H1299, H1299 cells; 10% FCS; 72 h with compound; Alamar blue 4 h; read-out: pIC50 H1299 (converted)
Procedure: as §1, §2

Compound	IC50 [1] [µM]	IC50 [2] [µM]	IC50 [3] [µM]	IC50 [4] [µM]	IC50 [5] [µM]	IC50 [6] [µM]
CN1CCCN(C)C(=O)CCCOc2cc(ccc2Cl)Nc2ncnc3[nH]cc(c23)C1 [Compound 43]	0.501					
CN1CCCN(C)C(=O)COc2cc(ccc2OC2CCCC2)Nc2ncnc3[nH]cc(c23)C1 [Compound 90]	0.0316					
COc1ccc2cc1OCCCC(=O)NCCCN(C)Cc1c[nH]c3ncnc(c13)N2 [Compound 25]	0.631					
CN1CCN(c2ccc3cc2OCCCC(=O)N(C)CCCN(C)Cc2c[nH]c4ncnc(c24)N3)CC1 [Compound 102]	3.98	6.31	6.31	> 10	5.01	2.51
CN1CCN(c2ccc3cc2OCCCCC(=O)N2CCN(CC2)Cc2c[nH]c4ncnc(c24)N3)CC1 [Compound 108]	7.94	> 10	> 10	> 10	> 10	> 10
COc1ccc2cc1OCC(=O)N[C@H](Cc1ccccc1)CN(C)CCCc1c[nH]c3ncnc(c13)N2 [Compound 39]	> 10					
COc1ccc2cc1CN(C)[C@@H](CO)C(=O)N(C)CCCc1c[nH]c3ncnc(c13)N2 [Compound 9]	> 10					
COc1ccc2cc1CN(C)[C@@H](CC(C)C)C(=O)N(C)CCCc1c[nH]c3ncnc(c13)N2 [Compound 52]	> 10					
COc1ccc2cc1OCC(=O)N(C)CC1CN(Cc3c[nH]c4ncnc(c34)N2)C1 [Compound 89]	0.251	> 10	> 10	> 10	> 10	> 10
CN1CCCN(C)C(=O)CCCOc2cc(cc(C(F)(F)F)c2)Nc2ncnc3[nH]cc(c23)C1 [Compound 83]	5.01	> 10	> 10	> 10	> 10	3.98
CN1CCCN(C)C(=O)COc2cc(ccc2OCc2ccccc2)Nc2ncnc3[nH]cc(c23)C1 [Compound 11]	0.0501					
CN1CCCN(C)C(=O)COc2cc(ccc2OCCOC2CCCC2)Nc2ncnc3[nH]cc(c23)C1 [Compound 99]	0.0251		0.0631	> 10	6.31	0.0398
CC(C)Oc1ccc2cc1OCC(=O)N(C)CCCN(C)Cc1c[nH]c3ncnc(c13)N2 [Compound 100]	0.0501	1.58	1.58	6.31	2	0.631
COc1cc2cc(c1OC)OCCCC(=O)N(C)CCCN(C)Cc1c[nH]c3ncnc(c13)N2 [Compound 69]	2	> 10	> 10	> 10	> 10	> 10
CN1CCCN(C)C(=O)COc2cc(ccc2OC2CCOC2)Nc2ncnc3[nH]cc(c23)C1 (centres unmarked) [Compound 135]	0.158					
COc1ccc2cc1CCC(=O)N(C)CCCN(C)Cc1c[nH]c3ncnc(c13)N2 [Compound 55]	0.794					
CN1CCCN(C)C(=O)COc2cc(ccc2OCC(=O)N2CCOCC2)Nc2ncnc3[nH]cc(c23)C1 [Compound 117]	0.0501	3.98	> 10	> 10	> 10	> 10
COc1cc2cc(c1OC)OCCCC(=O)N(C)CCN(C)Cc1c[nH]c3ncnc(c13)N2 [Compound 95]	> 10	> 10	> 10	> 10	> 10	> 10
CN1CCN(c2ccc3cc2OCCCC(=O)N2CCN(CC2)Cc2c[nH]c4ncnc(c24)N3)CC1 [Compound 109]	> 10	> 10	> 10	> 10	> 10	> 10
CN1CCN(C)C(=O)COc2cc(ccc2N2CCOCC2)Nc2ncnc3[nH]cc(c23)C1 [Compound 97]	0.794	> 10	> 10	> 10	> 10	> 10
CCCOc1ccc2cc1OCC(=O)N(C)CCCN(C)Cc1c[nH]c3ncnc(c13)N2 [Compound 101]	0.0398	1.58	1.58	7.94	2	0.794
CN1CCN(C)C(=O)CCCOc2cc(cc(C(F)(F)F)c2)Nc2ncnc3[nH]cc(c23)C1 [Compound 93]	6.31	> 10	> 10	> 10	> 10	1.26
CN1CCCN(C)C(=O)CCCOc2cccc(c2)Nc2ncnc3[nH]cc(c23)C1 [Compound 32]	0.501					
O=C1CCCOc2cc(ccc2N2CCOCC2)Nc2ncnc3[nH]cc(c23)CN2CCN1CC2 [Compound 110]	7.94					
CN1CCN(c2ccc3cc2OCCCC(=O)N(C)CCN(C)Cc2c[nH]c4ncnc(c24)N3)CC1 [Compound 94]	5.01	> 10	> 10	> 10	10	> 10
COc1cc2cc(c1OC)OCC(=O)N(C)CCN(C)Cc1c[nH]c3ncnc(c13)N2 [Compound 96]	5.01	> 10	> 10	> 10	> 10	> 10
CN1CCN(C)C(=O)CCCCOc2cc(cc(C(F)(F)F)c2)Nc2ncnc3[nH]cc(c23)C1 [Compound 92]	> 10	> 10	> 10	> 10	> 10	6.31
CN1CCCN(C)C(=O)COc2cc(ccc2OCC(=O)NC2CCCC2)Nc2ncnc3[nH]cc(c23)C1 [Compound 91]	0.0251	0.794	1.58	> 10	> 10	3.16
COc1ccc2cc1CN(C)[C@@H](Cc1ccccc1)C(=O)N(C)CCCc1c[nH]c3ncnc(c13)N2 [Compound 51]	> 10					
CN1CCCN(C)C(=O)COc2cc(ccc2NC(=O)Nc2cc(Cl)cc(Cl)c2)Nc2ncnc3[nH]cc(c23)C1 [Compound 115]	0.158	1	0.794	> 10	> 10	1.58
